Data on one molecule can be found in publication PMC5787466, “Accelerated bottom-up drug design platform enables the discovery of novel stearoyl-CoA desaturase 1 inhibitors for cancer therapy” (Oncotarget, 2017).

One data set concerns A498. Nature of the data set: Proliferation dose-response IC50, A498. Conditions: Homo sapiens, proliferative IC50, linear regression modeling of dose-response. Format: cell-based. As for the experimental part:
(§1) Error bars indicate standard deviation for n=2 replicates. […] To evaluate inhibition of SCD1 by these molecules, we used LC/MS to quantify changes in SCD1-catalyzed conversion of stearoyl-CoA to oleoyl-CoA in response to drug treatments in vitro using SCD1 protein extracted from murine liver (Figure 3c, Supplementary Figure 2g). […] Synthesis routes and spectral data including NMR and MS are also provided (Supplementary Figures 3-6).
(§2) Cells were seeded at 5,000 cells/well in clear-bottom 96-well plates in triplicate. Drug treatment was applied at 1:1000 in reduced serum conditions (3%). […] Alternatively, cells were plated 2x10^5/well in 12-well plates (Genesee Scientific) in triplicate prior to drug treatment. After 120-hour treatment, cell number was established using a Coulter Particle Counter (Beckman). Oleic acid-albumin (Sigma Aldrich) was added to media at 5µM, and was applied adjuvant to drug treatment. Drug stocks were prepared in DMSO (Sigma) at 1000x. IC50 dosing per cell line was calculated using CalcuSyn analytical software.

The next data set relates to Caki2. Nature of the data set: Proliferation dose-response IC50, Caki2. Format: cell-based. Conditions: Homo sapiens, CAKI-2; proliferative IC50, linear regression modeling of dose-response. As for the experimental part: as §1, §2
In the next data set the test system is A498 ccRCC tumors. As to the kind of experiment: Subcutaneous A498 xenograft tumor growth. Format: in vivo, athymic nude mice. Conditions: oral administration in chow, 60, 180 or 600 mg/kg, 4.5 weeks. Here is the method: SCD1 expression correlates with poor cancer patient outcomes as evidenced by decreased survival in multiple cancers including gastric, lung, ovarian and renal cell carcinoma (Figure 5a-5b, Supplementary Figure 9a-9b). […] Our findings in thyroid carcinoma similarly present discordancy between tumor response to SCD1 inhibitors and SCD1 expression. SSI-4 was tested in vivo for anti-tumorigenic activity.
Figure 5 SSI-4 attenuates tumor progression Kaplan Meier survival analysis of indicated subtypes of (a) gastric and (b) lung cancer patients sorted into high versus low SCD1 mRNA expression, for multiple disease subtypes. Patient risk assessment at indicated mean follow-up is shown. […] (h) Tumor burden of ACHN pulmonary metastasis in response to SSI-4 treatment (180mg/kg) measured by ex vivo bioluminescent flux, given in photons/second (n=5 per group). ([…]) Tumor burden of ACHN pulmonary metastasis as determined by H&E staining of lungs from (h).
A498 cells were injected subcutaneously in the flank of athymic nude mice at 1x10^6/mouse. […] Tumor burden was measured using calipers. […] Once therapy was completed, lung tissue was harvested and analyzed for tumor burden via ex vivo bioluminescent imaging, and hematoxylin and eosin (H&E) staining of formalin-fixed, paraffin-embedded lung tissue. […]

A short description of data set [1]: Pharmacokinetics after oral (PO) and intravenous (IV) administration, serum. It is filed as in vivo, rat. Conditions: male, C57BL/6, mouse; for bioavailability: absolute, from AUC0-last and nominal dose; for Cmax / half-life: po. As for the experimental part:
(e) Maximum serum concentration (Cmax) of SSI-4 before the administration of a second dose. (f) AUC curve to infinite time. (g) Summary of pharmacokinetics for SSI-4, where absolute bioavailability (%) is quantitated with AUC0-last and nominal dose.
Pharmacokinetic assessment was performed for SSI-4 administered to fasted male C57BL/6 mice either intravenously (IV) or by oral gavage (PO) in DMSO:PEG400:water (10:70:20) as a clear solution at 5 mg/mL (IV dosing), and 1,3 or 10 mg/mL (respectively for the PO dosing). Serum analysis was performed by LC-MS-MS.

The nature of data set [2]: Seven-day oral toxicology study (body weight, serum chemistry). Format: in vivo, Sprague Dawley rats. Here is the method:
. […] Chronic treatment at the highest dose in tumor-bearing animals appeared to be well tolerated, with ‹10% reduction in body mass even at the highest dose of 600mg/kg after 4.5 weeks of daily treatment (Supplementary Figure S9d).
Figure 7 SSI-4 has a favorable toxicity profile (a-b) Weight changes in male or female Sprague Dawley rats treated daily with indicated doses of SSI-4 for seven days (n=3 per group). (c-d) Serum profile of indicated enzymes measured on day 8 in male or female Sprague Dawley rats treated daily with indicated doses of SSI-4 for seven days (n=3 per group). (BUN= blood urea nitrogen; AST= aspartate aminotransferase; ALT= alanine aminotransferase; ALK/Phos= alkaline phosphatase).
Sprague dawley rats (6-8 weeks old M/F) were orally gavaged with SS1-4 at the indicated dose daily, for a duration of seven days. For each dose levels 3 male and 3 females were placed on study. Rats were clinically observed and weighed daily. On day 8 rats were euthanatized and blood was collected by cardiac puncture. Blood chemistry was measured by STAT Veterinary laboratory (San Diego CA).

The subject of a further data set is 4 ccRCC cell lines. As to the kind of experiment: High-throughput proliferative screen, single point. Conditions: in at least 2/4 ccRCC cell lines.

As a reminder, the IC50 is the point on the concentration scale where inhibition reaches its midpoint. In general, AUC refers to the area under the concentration-time curve, a measure of exposure. The low end stands for less exposure, the high end for more exposure. As usually defined, the Cmax is the maximum level reached in the sampled fluid or tissue.

Each structure is given as a SMILES string. Like-named read-outs stand apart in the source and are kept apart here. Some results are limits rather than exact numbers.

Text for 4 ccRCC cell lines: Using linear regression modeling generated from dose-response curves, proliferative inhibitory concentrations (IC50) of these 5 compounds were established (Figure 3b, Supplementary Figure 2b-2f).
(a) High-throughput proliferative screen
of known and novel SCD1 inhibitors in ccRCC cell lines. Dashed line represents a 40% decrease in proliferation as compared to DMSO
included as a known SCD1 inhibitor. Compounds labeled with an asterisk (*) are single-blinded known SCD1 inhibitors. (b-f) Dose-
the proliferative dose-response line graph.

Take `CNC(=O)c1ccnc(NC(=O)N2CCC(Oc3ccccc3Cl)CC2)c1` [SSI-4]: the concentration for half-maximal inhibition (IC50) with A498 and in the data set on Caki2 was 0.009 µM throughout. Also, the “growth of A498 ccRCC tumors” value in the data set on A498 ccRCC tumors is given as “growth inhibition”. In addition, the figures for the bioavailability in data set [1] (oral 10 mg/kg), in data set [1] (oral 30 mg/kg) and in data set [1] (oral 100 mg/kg) were 119%, 152% and 212%, respectively. Besides, the area under the curve (AUC) was 20900 ng·h/mL in data set [1] (oral, 10 mg/kg); 71200 ng·h/mL in data set [1] (oral, 30 mg/kg); 336000 ng·h/mL in data set [1] (oral, 100 mg/kg). Further, the highest concentration (Cmax) in data set [1] (10 mg/kg) is ~4320 ng/mL; in data set [1] (30 mg/kg), ~15900 ng/mL; in data set [1] (100 mg/kg), ~43300 ng/mL. Also, the half-life is 3.48 h in data set [1] (10 mg/kg, oral, 10 mg/kg, read-out: T1/2 (converted)); 2.71 h in data set [1] (30 mg/kg, oral, 30 mg/kg, read-out: T1/2 (converted)); 3.94 h in data set [1] (100 mg/kg, oral, 100 mg/kg, read-out: T1/2 (converted)); 2.71 to 3.94 h in data set [1] (100 mg/kg, range over the oral doses 10, 30, 100 mg/kg, read-out: median serum terminal half-life (T1/2)). Moreover, the liver enzymes result in data set [2] (all doses tested, males and females, day 8) is “No abnormalities”. Also, the “changes in body weight” value was “no significant changes” in data set [2] (females, all doses tested, daily oral for one week) and < 10% in data set [2] (males, daily oral dose of 300mg/kg for one week). The decrease in proliferation in the data set with 4 ccRCC cell lines is reported as > 40%.
